Measurements as given in patent publication US8759363B2, “Quinazoline-based T cell proliferation inhibitors” (Yissum Research Development Company of the Hebrew …, priority 2010, dated 2014).

Experiments:
[1] = system: PBMC; experiment: PBMC proliferation, BrdU incorporation; assay type: cell-based, human; details: for IC50: Homo sapiens, ConA-stimulated PBMC, BrdU uptake, nM ± SD, read-out: IC50 PBMC proliferation inhibition; for fold increase in the IC50 of PBMC proliferation compared with compound 2: relative to compound 2
Method: Blood samples were taken from healthy donors and loaded on a Ficoll density gradient to purify the PBMC population. T cells were purified by human anti-CD3 using an autoMACS instrument (Miltenyi Biotec, Bergisch-Gladbach, Germany), according to the manufacturer's instructions. The identity of T cells was confirmed by flow cytometry, as they stained positive for CD3. Cells were stimulated with ConA (10 μg/ml), ODN2006 (0.5 μg/ml; Enzo Life Sciences), or LPS (50 μg/ml; Sigma-Aldrich, Steinheim, Germany), for 72 h in the presence of the inhibitor, and their proliferation was measured in the BrdU incorporation assay as will be later described.
(§1) Cells were depleted of fetal calf serum (FCS) for 12 hours. They were then stimulated to proliferate by addition of ConA (10 μg/ml) for PBMC from healthy individuals and for Jurkat cells, FCS (10%) for HEK293 and A375 cells, PDGF (30 ng/ml) for NIH 3T3 cells, and EGF (30 ng/ml) for MDA-MB-231, Cells (1×10^5) were cultured in 96-well plates for 3 days in the presence or absence of inhibitors at the concentrations specified in the text. Each condition was tested in duplicate wells.
(§2) Proliferation was assessed by BrdU incorporation using a colorimetric ELISA kit (Roche, Germany). Subsequent to labeling with 10 μM BrdU, DNA was denatured and the cells were incubated with anti-BrdU-POD, prior to the addition of colorimetric substrate (TMB). The reaction product was quantified by measuring absorbance at 450 nm in an ELISA plate reader (ELx800 BIO-TEK Instruments Inc.).
(§3) Since we were not prejudiced towards any specific protein kinase, we used a biological assay for T cell proliferation. We tested our libraries for inhibition of proliferation of PBMC and Jurkat cells (Table 3). Cell proliferation was measured by BrdU uptake. […] PBMC cells were stimulated by a non-specific T cell mitogen, Concanavalin A (ConA). All of the compounds that were tested inhibited proliferation at micromolar or sub-micromolar concentrations.

[2] = system: Jurkat cells; experiment: Jurkat cell proliferation, BrdU incorporation; assay type: cell-based, human; details: for IC50: Homo sapiens, Jurkat, BrdU uptake, nM ± SD, read-out: IC50 Jurkat cells proliferation inhibition; for fold increase in the IC50 of Jurkat cell proliferation compared with compound 2: relative to compound 2
Method: as §1, §2, §3

Row | Structure (SMILES) | IC50 [2] | melting point | fold increase in the IC50 of Jurkat cell proliferation compared with compound 2 [2] | IC50 [1] | fold increase in the IC50 of PBMC proliferation compared with compound 2 [1]
1 | COc1ccc(Nc2nc(-c3cc(OC)c(OC)c(OC)c3)nc3ccccc23)cc1 [Compound 5, N-(4-methoxyphenyl)-2-(3,4,5-trimethoxyphenyl)quinazolin-4-amine] | 1100 ± 0.14 nM | > 250 °C | – | 500 ± 0.14 nM | –
2 | COc1cc(-c2nc(Nc3ccc(OC(F)(F)F)cc3)c3ccccc3n2)cc(OC)c1OC [Compound 7, N-(4-(trifluoromethoxy)phenyl)-2-(3,4,5-trimethoxyphenyl) quinazolin-4-amine] | 180 ± 0.11 nM | > 250 °C | 6 fold | 400 nM | 5 fold
3 | COc1cc(-c2nc(Nc3ccc(O)cc3)c3ccccc3n2)cc(OC)c1OC [Compound 4, 4-(2-(3,4,5-trimethoxyphenyl)quinazolin-4-ylamino)phenol] | 230 ± 0.04 nM | > 250 °C | – | 300 ± 0.14 nM | –
4 | COc1cc(-c2nc(Nc3ccc(Cl)cc3)c3ccccc3n2)cc(OC)c1OC [Compound 8, N-(4-chlorophenyl)-2-(3,4,5-trimethoxyphenyl)quinazolin-4-amine] | 530 ± 0.32 nM | > 250 °C | – | 300 ± 0.05 nM | –
5 | COc1cc(-c2nc(Nc3ccc4c(c3)OCO4)c3ccccc3n2)cc(OC)c1OC [Compound 18, N-(benzo[d][1,3]dioxol-5-yl)-2-(3,4,5-trimethoxyphenyl) quinazolin-4-amine] | 600 nM | > 250 °C | – | 380 ± 0.04 nM | –
6 | COc1cc(-c2nc(NCc3ccc(N)cc3)c3ccccc3n2)cc(OC)c1OC [Compound 11, N-(4-aminobenzyl)-2-(3,4,5-trimethoxyphenyl)quinazolin-4-amine] | 480 ± 0.18 nM | > 250 °C | – | 380 ± 0.04 nM | –
7 | COc1cc(-c2nc(Nc3ccccc3CO)c3ccccc3n2)cc(OC)c1OC [Compound 9, (2-(2-(3,4,5-trimethoxyphenyl)quinazolin-4-ylamino)phenyl)methanol] | 580 ± 0.18 nM | > 250 °C | – | 850 ± 0.07 nM | –
8 | COc1cc(-c2nc(NCCc3c[nH]c4ccccc34)c3ccccc3n2)cc(OC)c1OC [Compound 17, N-(2-(1H-indol-3-yl)ethyl)-2-(3,4,5-trimethoxyphenyl)quinazolin-4-amine] | 700 ± 0.35 nM | > 250 °C | – | 750 ± 0.21 nM | –
9 | COc1cc(-c2nc(Nc3ccc(C)cc3C)c3ccccc3n2)cc(OC)c1OC [Compound 3, N-(2,4-dimethylphenyl)-2-(3,4,5-trimethoxyphenyl)quinazolin-4-amine] | 2600 ± 3.39 nM | > 250 °C | 10 fold | 750 ± 0.05 nM | 10 fold
10 | COc1cc(-c2nc(NCc3ccc(F)c(F)c3)c3ccccc3n2)cc(OC)c1OC [Compound 12, N-(3,4-difluorobenzyl)-2-(3,4,5-trimethoxyphenyl)quinazolin-4-amine] | 730 ± 0.39 nM | > 250 °C | – | 200 nM | –

Further lines, with some results ahead:

Row | IC50 [2] | melting point | fold increase in the IC50 of Jurkat cell proliferation compared with compound 2 [2] | Structure (SMILES) | IC50 [1] | fold increase in the IC50 of PBMC proliferation compared with compound 2 [1]
11 | 800 ± 0.28 nM | > 250 °C | – | Oc1cc(-c2nc(Nc3ccc4c(c3)OCO4)c3ccccc3n2)cc(O)c1O [Compound 37, 5-(4-(benzo[d][1,3]dioxol-5-ylamino)quinazolin-2-yl)benzene-1,2,3-triol] | 5500 ± 6.36 nM | –
12 | 3240 ± 0.31 nM | > 250 °C | – | Oc1cc(-c2nc(Nc3ccc(OC(F)(F)F)cc3)c3ccccc3n2)cc(O)c1O [Compound 26, 5-(4-(4-(trifluoromethoxy)phenylamino)quinazolin-2-yl)benzene-1,2,3-triol] | 2780 ± 0.26 nM | –
13 | 950 ± 0.07 nM | > 250 °C | – | Oc1cc(-c2nc(NCc3ccccc3)c3ccccc3n2)cc(O)c1O [Compound 29, 5-(4-(benzylamino)quinazolin-2-yl)benzene-1,2,3-triol] | 7000 ± 3.5 nM | –
14 | 3640 ± 0.54 nM | > 250 °C | – | Oc1cc(-c2nc(NCc3ccc(Cl)c(Cl)c3)c3ccccc3n2)cc(O)c1O [Compound 32, 5-(4-(3,4-dichlorobenzylamino)quinazolin-2-yl)benzene-1,2,3-triol] | 2600 ± 0.24 nM | –
15 | 5500 ± 3.5 nM | > 250 °C | – | Oc1cc(-c2nc(Nc3ccccc3)c3ccccc3n2)cc(O)c1O [Compound 20, 5-(4-(phenylamino)quinazolin-2-yl)benzene-1,2,3-triol] | 650 ± 0.49 nM | –
16 | 710 ± 0.87 nM | > 250 °C | – | Oc1cc(-c2nc(Nc3ccc4[nH]ncc4c3)c3ccccc3n2)cc(O)c1O [Compound 35, 5-(4-(1H-indazol-5-ylamino)quinazolin-2-yl)benzene-1,2,3-triol] | 780 ± 0.67 nM | –
17 | 650 ± 0.21 nM | > 250 °C | – | OCc1ccccc1Nc1nc(-c2cc(O)c(O)c(O)c2)nc2ccccc12 [Compound 28, 5-(4-(2-(hydroxymethyl)phenylamino)quinazolin-2-yl)benzene-1,2,3-triol] | 900 ± 0.14 nM | –
18 | 4250 ± 1.3 nM | > 250 °C | – | CCCCCCCCOc1ccc(Nc2nc(-c3cc(O)c(O)c(O)c3)nc3ccccc23)cc1 [Compound 25, 5-(4-(4-(octyloxy)phenylamino)quinazolin-2-yl)benzene-1,2,3-triol] | 4530 ± 0.31 nM | –
19 | 3700 ± 4.67 nM | > 250 °C | – | Cc1ccc(Nc2nc(-c3cc(O)c(O)c(O)c3)nc3ccccc23)c(C)c1 [Compound 22, 5-(4-(2,4-dimethylphenylamino)quinazolin-2-yl)benzene-1,2,3-triol] | 730 ± 0.04 nM | –
20 | 4250 ± 5.3 nM | > 250 °C | – | Oc1cc(-c2nc(Nc3ccc(Cl)cc3)c3ccccc3n2)cc(O)c1O [Compound 27, 5-(4-(4-chlorophenylamino)quinazolin-2-yl)benzene-1,2,3-triol] | 550 ± 0.21 nM | –
21 | 5430 ± 0.76 nM | > 250 °C | – | COc1ccc(CNc2nc(-c3cc(O)c(O)c(O)c3)nc3ccccc23)cc1 [Compound 33, 5-(4-(4-methoxybenzylamino)quinazolin-2-yl)benzene-1,2,3-triol] | 3260 ± 0.49 nM | –
